This is an account of results in patent US20260028341A1, “IMIDAZOTRIAZINE DERIVATIVES AS IL-17 MODULATORS” (UCB BIOPHARMA SRL, priority 2022, published 2026).

For this assay, the target named is T1, IL-17A (Homo sapiens, UniProt Q16552).
T1 sequence (Q16552 24-155): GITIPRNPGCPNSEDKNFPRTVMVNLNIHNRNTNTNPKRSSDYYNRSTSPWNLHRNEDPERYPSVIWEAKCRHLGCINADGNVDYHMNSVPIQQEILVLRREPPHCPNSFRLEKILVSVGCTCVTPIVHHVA
The assay is described as follows: Inhibition of IL-17A induced IL-6 release from dermal fibroblast cell line (HDF cell line assay). The conditions noted are these: HDF cells stimulated with IL-17A (50 pM) plus TNF-α (25 pM); IL-6 release measured by HTRF. It counts as cell-based. The text has this:
Inhibition of IL-17A Induced IL-6 Release from Dermal Fibroblast Cell Line
The purpose of this assay is to test the neutralising ability to IL-17 proteins, in a human primary cell system. Stimulation of normal human dermal fibroblasts (HDF) with IL-17 alone produces only a very weak signal but in combination with certain other cytokines, such as TNFα, a synergistic effect can be seen in the production of inflammatory cytokines, i.e. IL-6.
HDFs were stimulated with IL-17A (50 pM) in combination with TNF-α (25 pM). The resultant IL-6 response was then measured using a homogenous time-resolved FRET kit from Cisbio. The kit utilises two monoclonal antibodies, one labelled with Eu-Cryptate (Donor) and the second with d2 or XL665 (Acceptor). The intensity of the signal is proportional to the concentration of IL-6 present in the sample (Ratio is calculated by 665/620×104).
The ability of a compound to inhibit IL-17 induced IL-6 release from human dermal fibroblasts is measured in this assay.
HDF cells (Sigma #106-05n) were cultured in complete media (DMEM+10% FCS+2 mM L-glutamine) and maintained in a tissue culture flask using standard techniques. Cells were harvested from the tissue culture flask on the morning of the assay using TrypLE (Invitrogen #12605036). The TrypLE was neutralised using complete medium (45 mL) and the cells were centrifuged at 300×g for 3 minutes. The cells were re-suspended in complete media (5 mL) counted and adjusted to a concentration of 3.125×10^4 cells/mL before being added to the 384 well assay plate (Corning #3701) at 40 μL per well. The cells were left for a minimum of three hours, at 37° C./5% CO2, to adhere to the plate.
Compounds were serially diluted in DMSO before receiving an aqueous dilution into a 384 well dilution plate (Greiner #781281), where […] from the titration plate was transferred to 45 μL of complete media and mixed to give a solution containing 10% DMSO.
Mixtures of TNFα and IL-17 cytokine were prepared in complete media to final concentrations of TNFα 25 pM/IL-17A 50 pM, then 30 μL of the solution was added to a 384 well reagent plate (Greiner #781281).
10 μL from the aqueous dilution plate was transferred to the reagent plate containing 30 μL of the diluted cytokines, to give a 2.5% DMSO solution. The compounds were incubated with the cytokine mixtures for 5 h at 37° C. After the incubation, 10 μL was transferred to the assay plate, to give a 0.5% DMSO solution, then incubated for 18-20 h at 37° C./5% CO2.
From the Cisbio IL-6 FRET kit (Cisbio #62IL6PEB) europium cryptate and Alexa 665 were diluted in reconstitution buffer and mixed 1:1, as per kit insert. To a white low volume 384 well plate (Greiner #784075) were added FRET reagents (10 μL), then supernatant (10 μL) was transferred from the assay plate to Greiner reagent plate. The mixture was incubated at room temperature for 3 h with gentle shaking (<400 rpm) before being read on a Synergy Neo 2 plate reader (Excitation: 330 nm; Emission: […]).
In general terms: Time-resolved FRET reads energy transfer from a long-lived donor to a nearby acceptor.
Regarding `Cc1nonc1C(=O)N[C@H](c1cn2ncc(C3(N4CC(C(F)(F)F)NC4=O)CC(F)(F)C3)nc2n1)C1CCC(F)(F)CC1` (single isomer, unassigned) [Example 1], the IC50 is 6.31 nM.

`Cc1nonc1C(=O)N[C@H](c1cn2ncc(C3(N4C[C@H](C(F)(F)F)NC4=O)CC(F)(F)C3)nc2n1)C1CCC(F)(F)CC1` (single isomer, unassigned) [Example 2]: the IC50 is 1000 nM.

Regarding `Cc1nonc1C(=O)N[C@H](c1cn2ncc(C3(N4C[C@@H](C(F)(F)F)NC4=O)CC3)nc2n1)C1CCC(F)(F)CC1` (single isomer, unassigned) [Example 3], the IC50 is 631 nM.

For the molecule `Cc1nonc1C(=O)N[C@H](c1cn2ncc(C3(N4C[C@@H](C(F)(F)F)NC4=O)CCOCC3)nc2n1)C1CCC(F)(F)CC1` (single isomer, unassigned) [Example 4], the 50% inhibitory concentration (IC50) is 3.98 nM.

Turning to `Cc1nonc1C(=O)N[C@H](c1cn2ncc(C3(N4C[C@H](C(F)(F)F)NC4=O)CCOCC3)nc2n1)C1CCC(F)(F)CC1` (single isomer, unassigned) [Example 5], the IC50 is 2000 nM.

`Cc1nonc1C(=O)N[C@H](c1cn2ncc([C@@]3(N4C[C@H](C(F)(F)F)NC4=O)CCOC3)nc2n1)C1CCC(F)(F)CC1` (single isomer, unassigned) [Example 13]: the IC50 is 7940 nM.

Regarding `Cc1nonc1C(=O)N[C@H](c1cn2ncc(C3(N4C[C@@H](C(F)(F)F)NC4=O)CCN(CC(C)(F)F)CC3)nc2n1)C1CCC(F)(F)CC1` (single isomer, unassigned) [Example 14], the IC50 is 3.98 nM.

Consider `Cc1nonc1C(=O)N[C@H](c1cn2ncc(C3(N4C[C@H](C(F)(F)F)NC4=O)CCN(CC(C)(F)F)CC3)nc2n1)C1CCC(F)(F)CC1` (single isomer, unassigned) [Example 15], for which the concentration for half-maximal inhibition (IC50) was 316 nM.

For the molecule `Cc1nonc1C(=O)N[C@H](c1cn2ncc(C3(N4C[C@@H](C(F)(F)F)NC4=O)CCN(CC(C)(C)F)CC3)nc2n1)C1CCC(F)(F)CC1` (single isomer, unassigned) [Example 16], the IC50 is 3.98 nM.

Take `Cc1nonc1C(=O)N[C@H](c1cn2ncc(C3(N4C[C@H](C(F)(F)F)NC4=O)CCN(CC(C)(C)F)CC3)nc2n1)C1CCC(F)(F)CC1` (single isomer, unassigned) [Example 17]: the IC50 was 251 nM.

For the molecule `Cc1nonc1C(=O)N[C@H](c1cn2ncc(C3(N4C[C@@H](C(F)(F)F)NC4=O)CCN(C)CC3)nc2n1)C1CCC(F)(F)CC1` (single isomer, unassigned) [Example 18], the IC50 is 10 nM.

With `Cc1nonc1C(=O)N[C@H](c1cn2ncc(C3(N4C[C@H](C(F)(F)F)NC4=O)CCN(C)CC3)nc2n1)C1CCC(F)(F)CC1` (single isomer, unassigned) [Example 19], the IC50 is 200 nM.

With `Cc1nonc1C(=O)N[C@H](c1cn2ncc(C3(N4CC(C(F)(F)F)NC4=O)CCN(C(=O)OC(C)(C)C)CC3)nc2n1)C1CCC(F)(F)CC1` (stereo partly drawn) [Example 6, tert-Butyl 4-(6-{(S)-(4,4-difluorocyclohexyl)[(4-methyl-1,2,5-oxadiazole-3-carbonyl)-amino]methyl}imidazo[1,2-b][1,2,4]triazin-3-yl)-4-[2-oxo-4-(trifluoromethyl)-imidazolidin-1-yl]piperidine-1-carboxylate], the IC50 is 7.94 nM.

On to `Cc1nonc1C(=O)N[C@H](c1cn2ncc(C3(N4CC(C(F)(F)F)NC4=O)CCNCC3)nc2n1)C1CCC(F)(F)CC1` (stereo partly drawn) [Example 7, N—[(S)-(4,4-Difluorocyclohexyl)(3-{4-[2-oxo-4-(trifluoromethyl)imidazolidin-1-yl]-piperidin-4-yl}imidazo[1,2-b][1,2,4]triazin-6-yl)methyl]-4-methyl-1,2,5-oxadiazole-3-carboxamide], for which the IC50 is 31.6 nM.

For the molecule “N—[(S)-(4,4-Difluorocyclohexyl)(3-{3-[(4R)-2-oxo-4-(trifluoromethyl)imidazolidin-1-yl]-oxetan-3-yl}imidazo[1,2-b][1,2,4]triazin-6-yl)methyl]-4-methyl-1,2,5-oxadiazole-3-carboxamide [Example 9]”, the negative logarithm of the IC50 (pIC50) amounted to 5.0.

“N—[(S)-(4,4-Difluorocyclohexyl)(3-{3-[(4S)-2-oxo-4-(trifluoromethyl)imidazolidin-1-yl]-oxetan-3-yl}imidazo[1,2-b][1,2,4]triazin-6-yl)methyl]-4-methyl-1,2,5-oxadiazole-3-carboxamide [Example 8]”: the pIC50 stood at 7.5.

With “N—[(S)-(4,4-Difluorocyclohexyl)(3-{(3R)-3-[(4R)-2-oxo-4-(trifluoromethyl)imidazolidin-1-yl]tetrahydrofuran-3-yl}imidazo[1,2-b][1,2,4]triazin-6-yl)methyl]-4-methyl-1,2,5-oxadiazole-3-carboxamide [Example 12]”, the pIC50 came to 6.2.

Consider “N—[(S)-(4,4-Difluorocyclohexyl)(3-{(3R)-3-[(4S)-2-oxo-4-(trifluoromethyl)imidazolidin-1-yl]tetrahydrofuran-3-yl}imidazo[1,2-b][1,2,4]triazin-6-yl)methyl]-4-methyl-1,2,5-oxadiazole-3-carboxamide [Example 10]”, for which the pIC50 was determined as 7.2.

As to “N—[(S)-(4,4-Difluorocyclohexyl)(3-{(3S)-3-f[(4S)-2-oxo-4-(trifluoromethyl)imidazolidin-1-yl]tetrahydrofuran-3-yl}imidazo[1,2-b][1,2,4]triazin-6-yl)methyl]-4-methyl-1,2,5-oxadiazole-3-carboxamide [Example 11]”, the pIC50 was determined as 8.0.

Broadly, the IC50 is the midpoint of a concentration-inhibition curve. For orientation: pIC50 means the IC50 on a negative log10 scale, so that one unit is a factor of ten.
